# Data published in patent US20250100996A1, “HETEROCYCLOALKYL AND HETEROARYL COMPOUNDS AND PHARMACEUTICAL COMPOSITIONS THAT MODULATE IKZF2” (Plexium, Inc., priority 2021, published 2025).
# Assays:
# IKZF2 (Helios) [1] = biological target: T1, IKZF2 (Helios) (Homo sapiens, UniProt Q96SW2+Q9UKS7); test: IKZF2 reporter degradation assay (HEK 293T IKZF2-mNeonGreen reporter cell line); type: cell-based; settings: @ 1 μM, HEK 293T IKZF2-mNeonGreen reporter, 24 hours incubation; for inhibition at 1 µM: HEK-293T, 24 h
# T1 construct: Leu-Asp junction (codons ctcgac before the linker); mScarlet (behind P2A) (C, cleaved yes); expressed in transfected cells
# How it was run: (§1)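 DC50 values come from four-parameter logistic regression of percent mNeonGreen-positive cells, imaged with mScarlet-based segmentation after 24 h compound exposure at 37° C. Quadruplicate wells had at most 0.5% DMSO. Reporters are C-terminal IKZF-mNeonGreen fusions with P2A-mScarlet, stably expressed in clonal HEK 293T lines.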
# IKZF2 (Helios) [2] = biological target: T2, IKZF2 (Helios) (Homo sapiens, UniProt Q9UKS7); test: as above; type: cell-based; settings: HEK 293T IKZF2-mNeonGreen reporter, 24 hours incubation
# T2 construct: Leu-Asp junction (codons ctcgac before the linker); mScarlet (behind P2A) (C, cleaved yes); expressed in transfected cells
# How it was run: as §1
# [3] = biological target: T3, human E3 ligase component cereblon (CRBN) (Homo sapiens, UniProt Q96SW2); test: Cereblon (CRBN) target engagement, NanoBRET TE Intracellular E3 Ligase Assay in transfected HEK-293T cells; settings: read-out: CRBN Binding EC50
# T3 construct: host or cells: HEK293T
# How it was run: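 Tracer displacement was read as the 610/450 nm BRET signal after 2 h at 37° C with an 11-point dilution series, typically 10 μM to 100 pM. Live HEK-293T cells expressed NanoLuc fused N-terminal to human CRBN together with DDB1. IC50 was fitted with a four-parameter logistic model.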
# IKZF3 (Aiolos) = biological target: T4, IKZF3 (Aiolos) (Homo sapiens, UniProt Q9UKT9); test: IKZF3 reporter degradation assay (HEK 293T IKZF3-mNeonGreen reporter cell line); type: cell-based; settings: HEK 293T IKZF3-mNeonGreen reporter, 24 hours incubation; for inhibition at 1 µM: HEK-293T, 24 h
# T4 construct: Leu-Asp junction (codons ctcgac before the linker); mScarlet (behind P2A) (C, cleaved yes); expressed in transfected cells
# From the text: Polycistronic plasmids were constructed for the mammalian expression of fluorescent reporter fusions of human transcription factors IKZF1 (Ikaros), IKZF2 (Helios), and IKZF3 (Aiolos). The respective protein sequences had their C-terminal end joined to a GGGGS linker repeated three times followed by mNeonGreen, P2A sequence, and mScarlet. The DNA sequences of the open reading frames are as follows:
# IKZF1, IKZF2, and IKZF3 constructs were cloned into the UCOE Hygromycin expression vectors (Millipore Sigma). Reporter constructs were transfected using cationic lipid reagents into adherent HEK 293T cells and stable integrants were selected by treatment with 200 μg/mL hygromycin B. Clonal populations were obtained from the population of stable integrants either by limiting dilution or fluorescence activated cell sorting.
# The clonal stable cell lines were maintained under constant 200 μg/mL hygromycin B selection while being passaged for use in the degradation assays. […] The fluorescence intensity of the IKZF1/2/3-mNeonGreen (FITC channel) and mScarlet (PE channel) reporters were routinely analyzed by flow cytometry to confirm consistent expression levels between experiments.
# The IKZF1/IKZF2/IKZF3 degradation assays were carried out by harvesting the HEK 293T reporter cell lines and resuspending the cells in media formulated for reduced background fluorescence (FluoroBrite; Thermo Fisher). The respective cell lines were seeded at a density of 4000 cells/well into black-walled 384-well optical grade assay tissue culture plates. The cells were incubated overnight at 37° C. to allow for attachment to the assay plate. Dilutions of the compounds were prepared in DMSO from 10 mM compound stocks. The assay plates were treated with appropriate concentrations of the compounds by dispensing the DMSO dilutions in quadruplicate wells with an upper limit of 0.5% final DMSO.
# After 24 hours incubation with the compounds, the assay plates were imaged on an ImageXpress Pico microscopy system (cells maintained at 37° C. during imaging) to obtain the fluorescent readouts. The assay plates were imaged in the FITC and Tetramethylrhodamine (TRITC) channels to obtain the mNeonGreen fluorescence intensity (reporter degradation data) and mScarlet fluorescence intensity (for cell segmentation). 293T-IKZF1 and 293T-IKZF3 reporter cell lines were imaged with exposures of 500 milliseconds (ms) for both FITC and TRITC channels, while the 293T-IKZF2 reporter cell line was imaged with exposures of 1000 ms for FITC and 1250 ms for TRITC. The resulting data was analyzed with Cell Reporter Xpress software using the 2-channel cell scoring analysis with a “percent positive” readout. The TRITC channel was selected for the “nuclei” segmentation with a threshold of 20 while the FITC channel was selected for the “Marker 1” segmentation and a threshold of 100 for the IKZF1 and IKZF3 reporter lines. […] The minimum segmentation width was set to 6 micrometers and the maximum segmentation width was set to 15 micrometers for all cell lines. The DC50 calculations were determined by regression to best fit four-parameter logistic curves using GraphPad Prism.
# T3 sequence (Q96SW2 whole entry): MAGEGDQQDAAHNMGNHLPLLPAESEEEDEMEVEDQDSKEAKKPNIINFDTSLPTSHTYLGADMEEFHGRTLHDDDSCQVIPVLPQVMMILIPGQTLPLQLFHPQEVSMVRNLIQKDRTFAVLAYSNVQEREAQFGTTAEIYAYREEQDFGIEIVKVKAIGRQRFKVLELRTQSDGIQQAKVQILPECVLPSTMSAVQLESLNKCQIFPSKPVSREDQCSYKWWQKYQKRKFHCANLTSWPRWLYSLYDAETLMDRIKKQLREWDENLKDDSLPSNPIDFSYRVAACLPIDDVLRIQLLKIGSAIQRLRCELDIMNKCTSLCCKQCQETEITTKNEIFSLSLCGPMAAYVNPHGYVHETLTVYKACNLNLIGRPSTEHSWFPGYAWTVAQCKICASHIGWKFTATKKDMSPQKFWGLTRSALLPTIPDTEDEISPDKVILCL
# T3 sequence (Q16531 whole entry partner): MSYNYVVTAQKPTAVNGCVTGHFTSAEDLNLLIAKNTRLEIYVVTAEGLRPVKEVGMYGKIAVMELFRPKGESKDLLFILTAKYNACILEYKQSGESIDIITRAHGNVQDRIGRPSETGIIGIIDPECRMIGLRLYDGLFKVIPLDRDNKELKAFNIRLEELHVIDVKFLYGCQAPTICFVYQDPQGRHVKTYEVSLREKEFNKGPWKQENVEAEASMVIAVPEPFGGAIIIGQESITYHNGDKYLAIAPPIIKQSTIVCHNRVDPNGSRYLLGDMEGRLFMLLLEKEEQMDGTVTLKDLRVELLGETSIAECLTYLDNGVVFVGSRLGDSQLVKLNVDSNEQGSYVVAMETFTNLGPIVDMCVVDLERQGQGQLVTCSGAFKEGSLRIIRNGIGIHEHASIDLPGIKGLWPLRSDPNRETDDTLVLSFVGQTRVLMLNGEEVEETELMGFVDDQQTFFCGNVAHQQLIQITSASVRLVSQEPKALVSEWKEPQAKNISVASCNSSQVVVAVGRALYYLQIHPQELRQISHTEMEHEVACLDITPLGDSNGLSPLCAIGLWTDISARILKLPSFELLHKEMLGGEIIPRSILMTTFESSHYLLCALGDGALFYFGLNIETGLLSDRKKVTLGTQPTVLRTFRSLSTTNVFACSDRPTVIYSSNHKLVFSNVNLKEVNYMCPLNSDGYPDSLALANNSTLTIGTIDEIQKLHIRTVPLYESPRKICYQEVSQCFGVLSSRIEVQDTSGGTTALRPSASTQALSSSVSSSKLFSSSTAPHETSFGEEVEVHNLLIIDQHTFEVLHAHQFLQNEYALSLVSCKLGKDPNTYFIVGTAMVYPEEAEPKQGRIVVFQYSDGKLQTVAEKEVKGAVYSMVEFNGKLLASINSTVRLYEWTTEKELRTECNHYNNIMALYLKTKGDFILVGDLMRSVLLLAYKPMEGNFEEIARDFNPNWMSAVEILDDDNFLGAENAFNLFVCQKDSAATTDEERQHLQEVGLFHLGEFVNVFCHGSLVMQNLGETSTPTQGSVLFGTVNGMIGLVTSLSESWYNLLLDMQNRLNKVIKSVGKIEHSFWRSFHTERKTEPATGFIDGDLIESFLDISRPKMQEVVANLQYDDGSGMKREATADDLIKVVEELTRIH
# T4 sequence (Q96SW2 whole entry partner): as the sequence (Q96SW2 whole entry) above
# T4 sequence (Q16531 whole entry partner): as the sequence (Q16531 whole entry partner) above
# T4 sequence (Q9UKT9 whole entry): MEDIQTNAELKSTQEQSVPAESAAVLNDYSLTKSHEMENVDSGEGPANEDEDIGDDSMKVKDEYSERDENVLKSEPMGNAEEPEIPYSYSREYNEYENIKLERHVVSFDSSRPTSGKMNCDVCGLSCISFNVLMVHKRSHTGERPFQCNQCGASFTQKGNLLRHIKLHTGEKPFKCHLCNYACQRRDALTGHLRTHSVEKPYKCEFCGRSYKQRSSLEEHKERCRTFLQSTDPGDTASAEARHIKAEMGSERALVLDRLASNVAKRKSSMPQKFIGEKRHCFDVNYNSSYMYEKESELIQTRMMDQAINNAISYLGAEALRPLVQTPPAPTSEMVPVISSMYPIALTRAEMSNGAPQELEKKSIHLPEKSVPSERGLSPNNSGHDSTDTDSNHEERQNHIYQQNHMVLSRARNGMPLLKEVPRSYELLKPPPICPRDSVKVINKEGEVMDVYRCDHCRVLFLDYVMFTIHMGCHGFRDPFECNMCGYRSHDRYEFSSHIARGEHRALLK
# T2 sequence (Q9UKS7 whole entry): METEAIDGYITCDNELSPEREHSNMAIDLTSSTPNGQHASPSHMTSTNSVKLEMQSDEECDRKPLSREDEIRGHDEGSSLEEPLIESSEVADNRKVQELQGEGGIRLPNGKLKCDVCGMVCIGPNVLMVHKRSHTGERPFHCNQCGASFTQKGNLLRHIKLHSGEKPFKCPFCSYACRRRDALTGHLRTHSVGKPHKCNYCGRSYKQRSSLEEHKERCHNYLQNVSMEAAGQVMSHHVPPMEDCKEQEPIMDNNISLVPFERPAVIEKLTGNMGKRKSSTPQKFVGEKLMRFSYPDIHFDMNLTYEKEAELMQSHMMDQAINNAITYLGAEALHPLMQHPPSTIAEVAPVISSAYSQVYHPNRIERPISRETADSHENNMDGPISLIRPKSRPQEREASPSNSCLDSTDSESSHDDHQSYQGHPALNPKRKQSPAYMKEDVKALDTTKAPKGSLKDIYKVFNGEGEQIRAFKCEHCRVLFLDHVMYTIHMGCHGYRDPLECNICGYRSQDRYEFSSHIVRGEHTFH
# T2 sequence (Q96SW2 whole entry, further chain): as the sequence (Q96SW2 whole entry) above
# T2 sequence (Q16531 whole entry partner): as the sequence (Q16531 whole entry partner) above
# T1 sequence (Q9UKS7 whole entry): as the sequence (Q9UKS7 whole entry) above
# T1 sequence (Q96SW2 whole entry): as the sequence (Q96SW2 whole entry) above
# T1 sequence (Q16531 whole entry partner): as the sequence (Q16531 whole entry partner) above
inhibition at 1 µM (IKZF2 (Helios) [1]) [%],DC50 (IKZF2 (Helios) [2]) [nM],EC50 [3] [nM],DC50 (IKZF3 (Aiolos)) [nM],IKZF2 % Degradation @ 1 μM (IKZF2 (Helios) [1]) [%],IKZF3 % Degradation @ 1 μM (IKZF3 (Aiolos)) [%],Structure (SMILES),inhibition at 1 µM (IKZF3 (Aiolos)) [%]
69.9,4,5,> 30000,,,"O=C1CCC(N2Cc3cc(O[C@H]4CCCC[C@@H]4N4CC(c5ncc(C(F)(F)F)cn5)C4)ccc3C2=O)C(=O)N1 (single isomer, unassigned) [Compound 120-B]",
,1,6,> 30000,87.1,,"O=C1CCC(N2Cc3cc(O[C@H]4CCCC[C@@H]4N4CC(c5ccc6ccccc6n5)C4)ccc3C2=O)C(=O)N1 (single isomer, unassigned) [Compound 90-B]",
,5,21,41.4,94.1,34.3,"O=C1CCC(N2Cc3cc(O[C@H]4CCCC[C@@H]4N4CC(c5ccc(C(F)(F)F)cn5)C4)ccc3C2=O)C(=O)N1 (single isomer, unassigned) [Compound 131-B]",
31.5,605,167,> 30000,,,"O=C1CCC(N2Cc3cc(OC4CCCCC4N4CC(c5cccnn5)C4)ccc3C2=O)C(=O)N1 (stereo not shown) [Compound 142-B, 3-(1-oxo-5-((2-(3-(pyridazin-3-yl)azetidin-1-yl)cyclohexyl)oxy)isoindolin-2-yl)piperidine-2,6-dione]",
76,4,7,> 30000,,,"O=C1CCC(N2Cc3cc(O[C@H]4CCCC[C@@H]4N4CC(c5ncc(Cl)cn5)C4)ccc3C2=O)C(=O)N1 (single isomer, unassigned) [Compound 111-B]",
74.6,6,6,> 30000,,,"O=C1CCC(N2Cc3cc(O[C@H]4CCCC[C@@H]4N4CC(c5ncc(Br)cn5)C4)ccc3C2=O)C(=O)N1 (single isomer, unassigned) [Compound 108-B]",
47.3,29,5,> 30000,,,"O=C1CCC(N2Cc3cc(O[C@@H]4CCCC[C@@H]4N4CC(c5ccc6ccccc6n5)C4)ccc3C2=O)C(=O)N1 (single isomer, unassigned) [Compound 91-B]",
94.8,6,7,86.6,,,"O=C1CCC(N2Cc3cc(O[C@H]4CCCC[C@@H]4N4CC(c5ccc(C(F)(F)F)nc5)C4)ccc3C2=O)C(=O)N1 (single isomer, unassigned) [Compound 126-B]",39.5
70.4,5,5,> 30000,,,"O=C1CCC(N2Cc3cc(O[C@H]4CCCC[C@@H]4N4CC(c5ncc(C6CC6)cn5)C4)ccc3C2=O)C(=O)N1 (single isomer, unassigned) [Compound 134-B]",
,6,26,63.3,95.4,39,"O=C1CCC(N2Cc3cc(O[C@H]4CCCC[C@@H]4N4CC(c5ccc(C(F)(F)F)nc5)C4)ccc3C2=O)C(=O)N1 (single isomer, unassigned) [Compound 127-B]",
,5,20,> 30000,80.5,,"O=C1CCC(N2Cc3cc(O[C@H]4CCCC[C@@H]4N4CC(c5ccc(Cl)cn5)C4)ccc3C2=O)C(=O)N1 (single isomer, unassigned) [Compound 100-B]",
< 30,34,13,> 30000,,,"O=C1CCC(N2Cc3cc(OC4CCCC4N4CC(c5c[nH]c6ccccc56)C4)ccc3C2=O)C(=O)N1 (stereo not shown) [Compound 181-B, 3-(5-((2-(3-(1H-indol-3-yl)azetidin-1-yl)cyclopentyl)oxy)-1-oxoisoindolin-2-yl)piperidine-2,6-dione]",
59.3,49,38,> 30000,,,"O=C1CCC(N2Cc3cc(O[C@H]4CCCC[C@@H]4N4CC(c5ncc(Br)cn5)C4)ccc3C2=O)C(=O)N1 (mixture of isomers) [Compound 137-B, Rac-3-(5-(((trans)-2-(3-(5-bromopyrimidin-2-yl)azetidin-1-yl)cyclohexyl)oxy)-1-oxoisoindolin-2-yl)piperidine-2,6-dione]",
75.5,11,18,> 30000,,,"O=C1CCC(N2Cc3cc(O[C@@H]4CCCC[C@@H]4N4CC(c5cncc(Cl)c5)C4)ccc3C2=O)C(=O)N1 (mixture of isomers) [Compound 155-B, Rac-3-(5-(((cis)-2-(3-(5-chloropyridin-3-yl)azetidin-1-yl)cyclohexyl)oxy)-1-oxoisoindolin-2-yl)piperidine-2,6-dione]",
20.4,581,247,> 30000,,,"O=C1CCC(N2Cc3cc(OC4CCCCC4N4CC(c5ccnnc5)C4)ccc3C2=O)C(=O)N1 (stereo not shown) [Compound 143-B, 3-(1-oxo-5-((2-(3-(pyridazin-4-yl)azetidin-1-yl)cyclohexyl)oxy)isoindolin-2-yl)piperidine-2,6-dione]",
,0.1,1,> 30000,69.6,,"O=C1CCC(N2Cc3cc(O[C@H]4CCCC[C@@H]4N4CC(c5ncc(C(F)(F)F)cn5)C4)ccc3C2=O)C(=O)N1 (single isomer, unassigned) [Compound 123-B]",
,25,21,> 30000,68.4,,"O=C1CCC(N2Cc3cc(O[C@H]4CCCC[C@@H]4N4CC(c5cncc(Cl)c5)C4)ccc3C2=O)C(=O)N1 (single isomer, unassigned) [Compound 117-B]",
76.7,6,13,> 30000,,,"O=C1CCC(N2Cc3cc(O[C@H]4CCCC[C@@H]4N4CC(C5CCN(C(=O)c6ccccc6)CC5)C4)ccc3C2=O)C(=O)N1 (stereo partly drawn) [Compound 24-A, 3-(5-{[(1S,2S)-2-[3-(1-benzoylpiperidin-4-yl)azetidin-1-yl]cyclohexyl]oxy}-1-oxo-2,3-dihydro-1H-isoindol-2-yl)piperidine-2,6-dione]",
,18,59,> 30000,69.9,,"O=C1CCC(N2Cc3cc(O[C@H]4CCCC[C@@H]4N4CC(c5ccncc5F)C4)ccc3C2=O)C(=O)N1 (single isomer, unassigned) [Compound 103-B]",
81.7,7,12,> 30000,,,"O=C1CCC(N2Cc3cc(O[C@H]4CCCC[C@@H]4N4CC(c5ncncc5Cl)C4)ccc3C2=O)C(=O)N1 (single isomer, unassigned) [Compound 92-B]",

Structure (SMILES),inhibition at 1 µM (IKZF2 (Helios) [1]) [%],DC50 (IKZF2 (Helios) [2]) [nM],EC50 [3] [nM],DC50 (IKZF3 (Aiolos)) [nM],IKZF2 % Degradation @ 1 μM (IKZF2 (Helios) [1]) [%],IKZF3 % Degradation @ 1 μM (IKZF3 (Aiolos)) [%],inhibition at 1 µM (IKZF3 (Aiolos)) [%]
"CN(C)C(=O)C1CCN(c2ccc(CN3CCC(O)(c4ccc5c(c4)CN(C4CCC(=O)NC4=O)C5=O)CC3)cc2)CC1 (stereo not shown) [Compound 41-A, 1-(4-((4-(2-(2,6-dioxopiperidin-3-yl)-1-oxoisoindolin-5-yl)-4-hydroxypiperidin-1-yl)methyl)phenyl)-N,N-dimethylpiperidine-4-carboxamide]",37.4,482,611,456,,,18.1
